In patent US8198273B2, “Compounds and methods for kinase modulation, and indications therefor” (Plexxikon Inc., priority 2009, dated 2012):

What was measured:
[1] = system: SKMEL3 melanoma cells (B-Raf V600E); assay: SKMEL3 cell growth inhibition (ATPlite); type: cell-based; conditions: Homo sapiens, SK-MEL3, 72 h; SKMEL3, 3 days incubation
Description: (§1) Compounds are assessed in a variety of cell based assays. For example human cell lines with B-Raf V600E mutation (A375 melanoma, SKMEL3 melanoma, and COL0205 colon adenocarcinoma), as well as tumorigenic cell lines with wild-type B-RAF (SW620 colon adenocarcinoma) or with Ras mutations (SKMEL2 melanoma and IPC298 melanoma). Similar assays may be used to assess additional tumorigenic cell lines with Ras mutations, including, but not limited to, M202, M207, M243, M244, M296, S117, HCT116, HCT15, DLD1, MiaPaCa, A549, NCI-H23, NCI-H460, HOP62, MDA-MB231, Hs-578T, HL60, MOLT-4, and CCRF-CEM.
(§2) On day 1, cells are counted, then centrifuged in a conical tube for 5 minutes at 1000 rpm. The supernatant is removed and cells are re-suspended as follows: • SW620 (ATCC catalog #CCL-27): resuspend in Leibovitz's L-15 medium, 2 mM L-glutamine, 10% fetal bovine serum to 6×10^4 cells/mL. • A375 (ATCC catalog #CRL-1619): resuspend in Dulbecco's modified Eagle's medium, 4 mM L-glutamine, 4.5 g/L D-glucose, 10% fetal bovine serum to 6×10^4 cells/mL. • COL0205 (ATCC catalog #CCL-222): resuspend in RPMI 1640, 2 mM L-glutamine, 1.5 g/L sodium bicarbonate, 4.5 g/L D-glucose, 10 mM HEPES, 1.0 mM sodium pyruvate, 10% fetal bovine serum to 6×10^4 cells/mL. • SKMEL2 (ATCC catalog #HTB-68): resuspend in Minimum Eagle essential medium, 2 mM L-glutamine, 1.5 g/L sodium bicarbonate, 0.1 mM non-essential amino acids, 1.0 mM sodium pyruvate, 10% fetal bovine serum to 6×10^4 cells/mL. • SKMEL3 (ATCC catalog #HTB-69): resuspend in McCoy's 5A medium, 1.5 mM L-glutamine, 15% fetal bovine serum to 6×10^4 cells/mL. • IPC298 (DSMZ catalog #ACC 251): resuspend in RPMI 1640, 2 mM L-glutamine, 10% fetal bovine serum to 6×10^4 cells/mL.
(§3) The cells are plated, 50 μL in each well of a 96-well dish (Corning 3610) and incubated at 37° C. in 5% CO2 overnight, cells plated to a final concentration of cells as follows:
SKMEL3: 3,000 cells per well.
On day 2, compound at a maximum concentration of 5 mM is serially diluted 1:3 for a total of 8 point titration with DMSO as a control. A 1 μL aliquot of each dilution point and control is added to 249 μL growth media and 50 μL is added to a well containing cells, providing 10 μM compound at the maximum concentration point. The cells are incubated for 3 days at 37° C. in 5% CO2.
(§4) On day 5, ATPlite 1 step Luminescence Assay System (Perkin Elmer #6016739) is brought to room temperature along with the cell cultures. ATPlite is added 25 μL to each well, shake for 2 minutes, and the cells are incubated at room temperature for 10 minutes, then luminescence is read on Safire reader. The measured luminescence correlates directly with cell number, such that the reading as a function of compound concentration is used to determine the IC50 value.
It is understood that the results of these assays may vary as assay conditions are varied. Inhibition levels determined under the conditions described herein represent a relative activity for the compounds tested under the specific conditions employed. The cell based assays are likely to show variability due to the complexity of the system and the sensitivity thereof to any changes in the assay conditions. […] Results for compounds that are tested and show substantially no inhibition below the highest tested concentration are represented as “-” in the tables below. In some instances, the compounds were not tested in all of the assays, or assay results were not valid, as indicated by NA in the tables below.

[2] = system: IPC298 melanoma cells (Ras mutation); assay: IPC298 cell growth inhibition (ATPlite); type: cell-based; conditions: Homo sapiens, IPC-298, 72 h; IPC298, 3 days incubation
Description: as §1, §2, §3
On day 2, compound at a maximum concentration of 5 mM is serially diluted 1:3 for a total of 8 point titration with DMSO as a control. […]
as §4
It is understood that the results of these assays may vary as assay conditions are varied. Inhibition levels determined under the conditions described herein represent a relative activity for the compounds tested under the specific conditions employed. […]

Row | SMILES | IC50 [1] | IC50 [2]
1 | CCCS(=O)(=O)Nc1ccc(F)c(C(=O)c2c[nH]c3ncc(-c4cnc(SC)nc4)cc23)c1F [P-2189, Propane-1-sulfonic acid {2,4-difluoro-3-[5-(2-methylsulfanyl-pyrimidin-5-yl)-1H-pyrrolo[2,3-b]pyridine-3-carbonyl]-phenyl}-amide] | – | < 10 µM
2 | COc1ncc(-c2cnc3[nH]cc(C(=O)c4c(F)ccc(NS(=O)(=O)c5cccc(F)c5)c4F)c3c2)cn1 [P-2045, N-{2,4-Difluoro-3-[5-(2-methoxy-pyrimidin-5-yl)-1H-pyrrolo[2,3-b]pyridine-3-carbonyl]-phenyl}-3-fluoro-benzenesulfonamide] | < 5 µM | –
3 | CCCS(=O)(=O)Nc1ccc(F)c(C(=O)c2c[nH]c3ncc(-c4cnc(N5CCCC5)nc4)cc23)c1F [P-2219, Propane-1-sulfonic acid {2,4-difluoro-3-[5-(2-pyrrolidin-1-yl-pyrimidin-5-yl)-1H-pyrrolo[2,3-b]pyridine-3-carbonyl]-phenyl}-amide] | < 5 µM | –

Other lines, results leading:

Row | IC50 [1] | IC50 [2] | SMILES
4 | < 1 µM | < 1 µM | COc1ncc(-c2cnc3[nH]cc(C(=O)c4c(F)ccc(NS(=O)(=O)c5cc(F)ccc5F)c4F)c3c2)cn1 [P-2042, N-{2,4-Difluoro-3-[5-(2-methoxy-pyrimidin-5-yl)-1H-pyrrolo[2,3-b]pyridine-3-carbonyl]-phenyl}-2,5-difluoro-benzenesulfonamide]
5 | < 1 µM | < 1 µM | COc1ncc(-c2cnc3[nH]cc(C(=O)c4c(F)ccc(NS(=O)(=O)c5ccccc5F)c4F)c3c2)cn1 [P-2041, N-{2,4-Difluoro-3-[5-(2-methoxy-pyrimidin-5-yl)-1H-pyrrolo[2,3-b]pyridine-3-carbonyl]-phenyl}-2-fluoro-benzenesulfonamide]
6 | < 1 µM | < 10 µM | CCCS(=O)(=O)Nc1ccc(F)c(C(=O)c2c[nH]c3ncc(-c4cnc(N(C)C)nc4)cc23)c1F [P-2196, Propane-1-sulfonic acid {3-[5-(2-dimethylamino-pyrimidin-5-yl)-1H-pyrrolo[2,3-b]pyridine-3-carbonyl]-2,4-difluoro-phenyl}-amide]
